The source of these data is ChEMBL document CHEMBL5370554, “Discovery of a first-in-class Aurora A covalent inhibitor for the treatment of triple negative breast cancer” (Eur J Med Chem, 2023).

For data set [1], the system named is MDA-MB-231. Kind of data set: Antiproliferative activity against human MDA-MB-231 cells assessed as inhibition of cell proliferation incubated for 48 hrs by CCK-8 assay. The conditions noted are these: MDA-MB-231, 48 h. In kind it is functional, cell-based. (Tetrazolium dyes change colour on reduction, which living cells bring about.)
The subject of data set [2] is SJSA-1. Description: Antiproliferative activity against human SJSA-1 cells assessed as inhibition of cell proliferation incubated for 48 hrs by CCK-8 assay. In kind it is functional, cell-based. Particulars: SJSA-1, 48 h.
The test system of data set [3] is HeLa. Description: Antiproliferative activity against human HeLa cells assessed as inhibition of cell proliferation incubated for 48 hrs by CCK-8 assay. In kind it is functional, cell-based.
Data set [4] relates to A549. Description: Antiproliferative activity against human A549 cells assessed as inhibition of cell proliferation incubated for 48 hrs by CCK-8 assay. The conditions noted are these: A549, 48 h. It is filed as functional, cell-based.
Data set [5] has as its target T1, Aurora kinase A (Homo sapiens, UniProt O14965).
T1 sequence (O14965 whole entry): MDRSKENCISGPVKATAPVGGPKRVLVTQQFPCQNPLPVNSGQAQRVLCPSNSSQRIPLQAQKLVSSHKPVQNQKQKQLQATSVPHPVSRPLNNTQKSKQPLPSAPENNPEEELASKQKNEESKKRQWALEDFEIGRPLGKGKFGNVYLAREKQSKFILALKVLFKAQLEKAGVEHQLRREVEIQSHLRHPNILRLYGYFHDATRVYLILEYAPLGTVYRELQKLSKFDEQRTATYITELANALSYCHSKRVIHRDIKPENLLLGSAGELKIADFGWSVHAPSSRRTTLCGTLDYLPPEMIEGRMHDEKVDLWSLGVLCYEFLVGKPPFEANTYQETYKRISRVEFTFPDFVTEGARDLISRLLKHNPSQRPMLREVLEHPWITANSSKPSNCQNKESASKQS
Description: Inhibition of recombinant human Aurora A (1 to 403 residues) expressed in Escherichia coli using FAM-labeled peptide as substrate preincubated for 10 mins followed by substrate addition and measured after 20 mins in presence of ATP by HTRF assay. On the technique in general: TR-FRET usually uses a lanthanide donor and a delayed reading to cut background.

Data set [6] in a line: Cytotoxicity against human L02 cells assessed as inhibition of cell proliferation incubated for 48 hrs by CCK-8 assay. It is filed as toxicity, cell-based.
The nature of data set [7]: Toxicity in BALB/c nude mouse xenografted with human MDA-MB-231 cells assessed as body weight change at 30 mg/kg,ip every 2days for 20 days. It is filed as organism-based. Particulars: in vivo, 480 h, time 20 day. On the technique in general: A xenograft is tissue or cells of one species grown in another, often human tumour cells in immunodeficient mice.
Data set [8] concerns MDA-MB-231. Kind of data set: Antitumor activity against human MDA-MB-231 cells xenografted in BALB/c nude mouse assessed as tumor growth inhibition at 30 mg/kg,ip every 2days for 20 days. In kind it is functional. The conditions noted are these: MDA-MB-231, 480 h, time 20 day, read-out: TGI.

For orientation: IC50 means the concentration that inhibits the measured activity by half. As for `Cc1cc(Nc2nc(-c3ccccc3N)nc3cc(N4CCN(C)CC4)ccc23)n[nH]1`, the IC50 in data set [1] is 760 nM; in data set [2], 2.66 µM; in data set [3], 8.3 µM; in data set [4], 1130 nM; in data set [5] it was 11 nM.

As for `C=CC(=O)Nc1cc(-c2nc(Nc3cc(C)[nH]n3)c3ccc(N4CCN(C)CC4)cc3n2)ccc1C`, the IC50 in data set [1] worked out at 1660 nM; in data set [2], 23.6 µM; in data set [3] it was 9.13 µM; in data set [4] it was 310 nM; in data set [5], 1.1 nM. In data set [6], the IC50 at 48 h turned out to be 34.2 µM.

For `C=CC(=O)Nc1ccc(-c2nc(Nc3cc(C)[nH]n3)c3ccc(N4CCOCC4)cc3n2)cc1`, the IC50 was 2660 nM in data set [1]; 14.8 µM in data set [2]; 5.51 µM in data set [3]; 260 nM in data set [4]; 2.7 nM in data set [5]. In data set [6], the IC50 at 48 h is 43.2 µM.

For `Cc1cc(Nc2nc(-c3ccccc3)nc3cc(N4CCN(C)CC4)ccc23)n[nH]1`, the IC50 in data set [1] came to 1440 nM; in data set [2], 18.8 µM; in data set [3], 5.5 µM; in data set [4] it was 1440 nM. In data set [6], the IC50 at 48 h stood at 2.74 µM.

Regarding `C=CC(=O)Nc1cccc(-c2nc(Nc3cc(C)[nH]n3)c3ccc(N4CCN(C)CC4)cc3n2)c1`, the IC50 was 2600 nM in data set [1]; 6.8 µM in data set [2]; 4.22 µM in data set [3]; 3270 nM in data set [4]; 1.5 nM in data set [5].

On to `Cc1cc(Nc2nc(-c3cccc(N)c3)nc3cc(N4CCN(C)CC4)ccc23)n[nH]1`, for which the IC50 in data set [1] was determined as 1750 nM; in data set [2], 3.67 µM; in data set [3], 6.77 µM; in data set [4] it was 2060 nM; in data set [5] it was 2.1 nM.

For the compound `C=CC(=O)Nc1cccc(-c2nc(Nc3cc(C)[nH]n3)c3ccc(N4CCOCC4)cc3n2)c1`, the IC50 was 5900 nM in data set [1]; 12.5 µM in data set [2]; 2.23 µM in data set [3]; 850 nM in data set [4]; 1.7 nM in data set [5].

Regarding `CCC(=O)Nc1ccc(-c2nc(Nc3cc(C)[nH]n3)c3ccc(N4CCN(C)CC4)cc3n2)cc1`, the IC50 in data set [1] amounted to 2200 nM; in data set [2], 28.6 µM; in data set [3], 17.9 µM; in data set [4] it was 1180 nM; in data set [5], 5 nM. Moreover, the IC50 at 48 h in data set [6] was found to be 24.7 µM.

For the compound `Cc1cc(Nc2nc(-c3cccc(N)c3)nc3cc(N4CCOCC4)ccc23)n[nH]1`, the IC50 in data set [1] was 6960 nM; in data set [2] it was 12.5 µM; in data set [3] it was 7.52 µM; in data set [4], 1770 nM.

Take `Cc1cc(Nc2cc(N3CCN(C)CC3)nc(/C=C/c3ccccc3)n2)n[nH]1` [ENMD-2076]: the IC50 in data set [1] was found to be 5210 nM; in data set [2] it was 56.7 µM; in data set [3], 9.02 µM; in data set [4] it was 2650 nM. Moreover, the IC50 at 48 h in data set [6] is 42.6 µM. Besides, the Activity entry in data set [7] is listed as “Non-Toxic”. Further, the inhibition in vivo at 30 mg/kg in data set [8] was 30.9%.

As to `C=CC(=O)Nc1ccccc1-c1nc(Nc2cc(C)[nH]n2)c2ccc(N3CCN(C)CC3)cc2n1`, the 50% inhibitory concentration (IC50) in data set [1] worked out at 13400 nM; in data set [2], 13.9 µM; in data set [3], 41.2 µM; in data set [4] it was 19700 nM; in data set [5], 45 nM.

In the case of `Cc1cc(Nc2nc(-c3cccc(O)c3)nc3cc(N4CCN(C)CC4)ccc23)n[nH]1`, the IC50 in data set [1] turned out to be 1490 nM; in data set [2] it was 10.7 µM; in data set [3] it was 6.8 µM; in data set [4], 2150 nM; in data set [5], 2 nM.

For the compound `Cc1cc(Nc2nc(-c3ccc(N)cc3)nc3cc(N4CCN(C)CC4)ccc23)n[nH]1`, the IC50 in data set [1] came out at 640 nM; in data set [2], 2.82 µM; in data set [3] it was 4.88 µM; in data set [4], 4120 nM; in data set [5], 3.1 nM.

In the case of `Cc1cc(Nc2nc(-c3ccc(OS(=O)(=O)F)cc3)nc3cc(N4CCN(C)CC4)ccc23)n[nH]1`, the IC50 in data set [1] is 4340 nM; in data set [2], 23.1 µM; in data set [3], 4.87 µM; in data set [4], 1150 nM; in data set [5], 25 nM.

With `Cc1cc(Nc2nc(-c3ccc(O)cc3)nc3cc(N4CCN(C)CC4)ccc23)n[nH]1`, the IC50 amounted to 1340 nM in data set [1]; 17.4 µM in data set [2]; 9.68 µM in data set [3]; 4740 nM in data set [4]; 2.5 nM in data set [5].

As for `Cc1cc(Nc2nc(-c3ccc(N)cc3)nc3cc(N4CCOCC4)ccc23)n[nH]1`, the IC50 in data set [1] was found to be 4390 nM; in data set [2], 6.54 µM; in data set [3], 7.3 µM; in data set [4], 1640 nM.

With `Cc1cc(Nc2nc(-c3ccccc3O)nc3cc(N4CCN(C)CC4)ccc23)n[nH]1`, the IC50 in data set [1] came to 2430 nM; in data set [2], 11.6 µM; in data set [3], 3.8 µM; in data set [4], 2690 nM; in data set [5], 5.5 nM.
